This is an account of results in patent US4670258A, “Storable prepackaged aqueous solutions of vancomycin” (Vanderbilt University, priority 1984, dated 1987).

Where two headings read alike, the source gives them in different places.

Data set [1] can be described thus: Peptide binding to vancomycin studied by UV spectroscopy. From the text:
when studied by UV spectroscopy. The binding constants for the other

The conditions of data set [2]: no additive, HPLC.
Protocol: (§1) Solutions containing vancomycin (1 mmol) and peptide (either 1 mmol or 2 mmol) in a total volume of 2 ml (pH 4.1-4.2) were placed in screw-capped test tubes and heated at 80° C. for 17 hr. At the end of the reaction time aliquots of the reaction mixture were analyzed for vancomycin and its degradation products, CDP-I-Major (CDP-I-M) and CDP-I-minor (CDP-I-m), by HPLC (Harris, Kopecka and Harris (1983), J. Am. Chem. Soc. 105: 6915-6922).
For data set [3] the following is noted: cited from earlier work.
Another data set concerns Staphylococcus. Particulars: cited from earlier work.
The nature of another data set: physchem. Conditions: water, pH 4.15.

Protocol for B. subtilis: The protection of antibiotic activity of vancomycin by binding peptide is illustrated by the following experiment. Solutions containing vancomycin (2 mmol) and peptide 4 mmol) in a total volume of 1 ml (pH 4.40) were placed in screw-capped test tubes and heated at 80° C. for 66 h. The residual antibiotic activity was measured by the disc diffusion technique with B. subtilis as the test organism (Coller and Gralnick (1977), J. Clinical Investigation 60: 302-312; Crossley, Rotschafer, Chern, Mead and Zaske (1980), Antimicrob. Agents and Chemother. 17: 654-657).
Vancomycin-peptide solutions were prepared as in the previous experiments and steam sterilized (15 psi) for 30 min. Antibiotic activity was measured as in Example II.
Protocol for physchem: as §1

Consider `CC(=O)N[C@H](C)C(=O)NCCC(=O)O` [Ac--D-ala-β-ala], for which, in data set [1], the “measurable binding to vancomycin” value is on record as “does not exhibit any measurable binding”.

In the case of `CN[C@H](CC(C)C)C(=O)N[C@H]1C(=O)N[C@@H](CC(N)=O)C(=O)N[C@H]2C(=O)N[C@H]3C(=O)N[C@H](C(=O)N[C@H](C(=O)O)c4cc(O)cc(O)c4-c4cc3ccc4O)[C@H](O)c3ccc(c(Cl)c3)Oc3cc2cc(c3O[C@@H]2O[C@H](CO)[C@@H](O)[C@H](O)[C@H]2O[C@H]2C[C@](C)(N)[C@H](O)[C@H](C)O2)Oc2ccc(cc2Cl)[C@H]1O` [Vancomycin], the “% Vancomycin remaining (unheated control)” value in data set [2] was 92%. Besides, the “% Activity (unheated)” value with B. subtilis (Table II, disc diffusion) stood at 100%; in the data set with B. subtilis (Table III, disc diffusion) it was 100%. The “% Activity (heated)” value in the data set on B. subtilis (heated 80° C. for 66 h, pH 4.40, disc diffusion) is recorded as 25%. Besides, the “% Activity (steam sterilized)” value in the data set on B. subtilis (steam sterilized (15 psi) for 30 min, disc diffusion) is on record as 58%. Further, in data set [3] (refrigeration temperatures (viz. 5° C.)), the “storage stability in aqueous solution, refrigerated” value was “can be stored for several weeks”. In addition, the “potency and pH change in aqueous solution on storage” value in data set [3] (room temperature or prolonged storage under refrigeration) is “potency is lost and autogenous pH changes occur”. Further, the “effectiveness against Staphylococcus” value in the data set on Staphylococcus is reported as “particularly effective”. In “physchem”, the fraction remaining (usually what is left of the initial amount, in per cent) at 17 h is 49%.
